In patent EP4660190A1, “PHARMACEUTICALLY ACCEPTABLE SALT OF COMPOUND AND PREPARATION METHOD THEREFOR” (Jiangsu Chia Tai Fenghai Pharmaceutical Co., Ltd., priority 2023, dated 2024):
Marks after values point to notes of the source that are not given here.

What was measured:
[1] = system: Middle cerebral artery occlusion (MCAO) models of SD rata; assay: Rat MCAO model, 28-day dosing, grid walking test; type: in vivo, SD rats; conditions: Mean±SD
Description: (§1) Middle cerebral artery occlusion (MCAO) models of SD rata were constructed by using the suture occlusion method. The rats were administered with the test compound for 28 consecutive days. The pharmacodynamic evaluation on the test compound for cerebral stroke was obtained based on general observation and neurobehavioral assessment. […] The ECA was ligated. The ICA was temporarily occluded. Sutures were threaded at both the proximal end and the distal end of CCA. The distal end was securely ligated, and a loosely tied knot was placed at the proximal end. A small incision was made on the CCA between these two sutures. […] The threading was halted temporarily when reaching the artery clamp of ICA. The pre-ligation suture was further tightened. The artery clamp blocking the blood flow in the ICA was removed, allowing the suture occlusion to be advanced into the ICA until it entered the intracranial region. […] The insertion was stopped at the moment, and the time was recorded. The artery clamp on the CCA was removed and the incision was closed after no active bleeding was observed. The ischemic rats were placed at room temperature to keep their body temperature at 37°C, and anesthesia induction could be carried out 120min later. The suture was slowly and gradually withdrawn under anesthesia until the proximal end retracted into the ECA, thereby initiating reperfusion of the middle cerebral artery. Animals received the designated dosage immediately (within 10 min) after reperfusion. This dosing regimen continued once daily for a duration of 28 days, with the day of operation being defined as D1 (Day 0). […] After the completion of the 28-day dosing period, all surviving animals in the study were euthanized, and their brains were rapidly collected for pathological analysis. […] Table 8 Results of Grid Walking Test

[2] = system: Middle cerebral artery occlusion (MCAO) models of SD rata; assay: Rat MCAO model, 28-day dosing, pathological examination (restoration area, perfused blood vessels); type: in vivo, SD rats; conditions: for Proportion of samples showing good recovery (%): restoration area > 30%; for No. of erythrocyte-containing blood vessels ≤10: number of animals
Description: as §1, with “Test […] Table 10 Summary of Tissue Restoration in Each Group” for “Test”

[3] = Distribution in plasma and brain tissues of rats; type: in vivo, Male SD rats; conditions: rat, 20mg/kg p.o.
Excerpt: The concentration of compound in the plasma and brain tissue samples was quantified by liquid chromatography-tandem mass spectrometry (LC-MS/MS).

[4] = system: Middle cerebral artery occlusion (MCAO) models of SD rata; assay: Rat MCAO model, 28-day dosing, novel object recognition test; type: in vivo, SD rats; conditions: test on D27, Mean±SD
Description: as §1, with “Test (2) A novel object recognition test was performed on the last day of the treatment and the novel object recognition index (NRI) of animals in each group was calculated. […] The result has shown that Compound (I) has significant effect on animals with cognitive impairment caused by stroke (see details in Table 9). Table 9 Results of novel object recognition tests” for “Test”

[5] = high dose 20mg/kg p.o. q.d. 28 days
[6] = high dose 20mg/kg p.o. q.d. 28 days, N = 12
[7] = low dose 6mg/kg p.o. q.d. 28 days
[8] = low dose 6mg/kg p.o. q.d. 28 days, N = 12
[9] = 60mg/kg p.o. q.d. 28 days, N = 14

In the case of CCC/C(O)=C1/C(=O)Oc2ccccc21 [Compound (I)], the “Misstep frequency (times)” value ([1]; high dose 20mg/kg p.o. q.d., 1W after operation, 20 mg/kg) was 4.23±1.44 times, the “Misstep frequency (times)” value ([1]; high dose 20mg/kg p.o. q.d., 1W after operation, listed as compound (I), 20 mg/kg) was 4.23±1.44 times and the “Misstep frequency (times)” value ([1]; high dose 20mg/kg p.o. q.d., 2W after operation) was 3.23± 2.56 times. For the same compound, the “Misstep frequency (times)” value ([1]; high dose 20mg/kg p.o. q.d., 3W after operation) was 2.50± 0.81 times, the “Misstep frequency (times)” value ([1]; high dose 20mg/kg p.o. q.d., 4W after operation) was 1.42± 1.11 times and the “Misstep frequency (times)” value ([1]; low dose 6mg/kg p.o. q.d., 1W after operation, 6 mg/kg) was 5.33± 2.33 times. The “Misstep frequency (times)” value ([1]; low dose 6mg/kg p.o. q.d., 1W after operation, listed as compound (I), 6 mg/kg) was 5.33±2.33 times, the “Misstep frequency (times)” value ([1]; low dose 6mg/kg p.o. q.d., 2W after operation) was 6.33± 3.53 times and the “Misstep frequency (times)” value ([1]; low dose 6mg/kg p.o. q.d., 3W after operation) was 4.38± 2.44 times. The “Misstep frequency (times)” value ([1]; low dose 6mg/kg p.o. q.d., 4W after operation) was 2.58± 1.55 times, the “Proportion of erythrocyte-containing blood vessels>10 (%)” value [2, 5] was 92.3% and the “Number of samples Restoration area > 30%” value [2, 6] was 9**. The “Number of samples Restoration area ≤ 30%” value [2, 6] was 3, the “Proportion of samples showing good recovery (%)” value [2, 5] was 75.0% and the “Proportion of erythrocyte-containing blood vessels>10 (%)” value [2, 7] was 100%. For the same compound, the “Number of samples Restoration area > 30%” value [2, 8] was 4, the “Number of samples Restoration area ≤ 30%” value [2, 8] was 8 and the “Proportion of samples showing good recovery (%)” value [2, 7] was 33.3%. For the same compound, the “No. of erythrocyte-containing blood vessels ≤10” value ([2]; high dose 20mg/kg p.o. q.d. 28 days, N = 13) was 1, the “No. of erythrocyte-containing blood vessels ≤10” value [2, 8] was 0 and the “Measured value in brain tissues Concentration” value ([3]; 0.5 h) was 8733.3 ng/g. The “Measured value in plasma Concentration” value ([3]; 0.5 h) was 241333.3 ng/mL, the “Measured value in brain tissues Concentration” value ([3]; 1 h) was 5726.7 ng/g and the “Measured value in plasma Concentration” value ([3]; 1 h) was 192333.3 ng/mL. The “Measured value in brain tissues Concentration” value ([3]; 4h) was 5030.0 ng/g, the “Measured value in plasma Concentration” value ([3]; 4h) was 182333.3 ng/mL and the “Measured value in brain tissues Concentration” value ([3]; 24 h) was 285.3 ng/g. For the same compound, the “Measured value in plasma Concentration” value ([3]; 24 h) was 23500.0 ng/mL, the “Recognition index (%) Familiar object” value ([4]; high dose 20mg/kg p.o. q.d.) was 28.34± 17.06% and the “Sniffing time (S) Familiar object” value ([4]; high dose 20mg/kg p.o. q.d.) was 2.20± 1.66 S. The “Sniffing time (S) Novel object” value ([4]; high dose 20mg/kg p.o. q.d.) was 5.62± 3.60 S, the “Recognition index (%) Novel object” value ([4]; high dose 20mg/kg p.o. q.d., 20 mg/kg) was 71.66±17.06% and the “Recognition index (%) Familiar object” value ([4]; low dose 6mg/kg p.o. q.d.) was 29.02± 22.60%. The “Sniffing time (S) Familiar object” value ([4]; low dose 6mg/kg p.o. q.d.) was 1.54± 1.10 S, the “Sniffing time (S) Novel object” value ([4]; low dose 6mg/kg p.o. q.d.) was 4.74± 3.61 S and the “Recognition index (%) Novel object” value ([4]; low dose 6mg/kg p.o. q.d., 6 mg/kg) was 70.98±22.60%.
In the case of CCCCC1OC(=O)c2ccccc21 (stereo not drawn) [Butylphthalide, butylphthalide, reference compound], the “Misstep frequency (times)” value ([1]; 60mg/kg p.o. q.d., 1W after operation, listed as NBP) was 7.37±3.03 times, the “Misstep frequency (times)” value ([1]; 60mg/kg p.o. q.d., 2W after operation) was 8.10± 2.97 times and the “Misstep frequency (times)” value ([1]; 60mg/kg p.o. q.d., 3W after operation) was 6.27± 2.890 times. For the same compound, the “Misstep frequency (times)” value ([1]; 60mg/kg p.o. q.d., 4W after operation) was 2.10± 1.46 times, the “Proportion of erythrocyte-containing blood vessels>10 (%)” value ([2]; 60mg/kg p.o. q.d. 28 days) was 93.3% and the “Number of samples Restoration area > 30%” value [2, 9] was 3. The “Number of samples Restoration area ≤ 30%” value [2, 9] was 11, the “Proportion of samples showing good recovery (%)” value ([2]; 60mg/kg p.o. q.d. 28 days) was 21.4% and the “No. of erythrocyte-containing blood vessels ≤10” value ([2]; 60mg/kg p.o. q.d. 28 days, N = 15) was 1. For the same compound, the “Measured value in brain tissues Concentration” value ([3]; 0.5 h) was 28.5 ng/g, the “Measured value in plasma Concentration” value ([3]; 0.5 h) was 26.0 ng/mL and the “Measured value in brain tissues Concentration” value ([3]; 1 h) was 22.8 ng/g. For the same compound, the “Measured value in plasma Concentration” value ([3]; 1 h) was 19.1 ng/mL, the “Measured value in brain tissues Concentration” value ([3]; 4h) was 10.2 ng/g and the “Measured value in plasma Concentration” value ([3]; 4h) was 7.2 ng/mL. For the same compound, the “Measured value in plasma Concentration” value ([3]; 24 h) was 1.7 ng/mL, the “Sniffing time (S) Familiar object” value ([4]; 60mg/kg p.o. q.d.) was 1.60± 1.01 S and the “Sniffing time (S) Novel object” value ([4]; 60mg/kg p.o. q.d.) was 4.94± 3.60 S.
